The target in experiment [1] is T1, human recombinant Monoacylglycerol Lipase (Homo sapiens, UniProt Q99685).
T1 sequence (Q99685 1-303): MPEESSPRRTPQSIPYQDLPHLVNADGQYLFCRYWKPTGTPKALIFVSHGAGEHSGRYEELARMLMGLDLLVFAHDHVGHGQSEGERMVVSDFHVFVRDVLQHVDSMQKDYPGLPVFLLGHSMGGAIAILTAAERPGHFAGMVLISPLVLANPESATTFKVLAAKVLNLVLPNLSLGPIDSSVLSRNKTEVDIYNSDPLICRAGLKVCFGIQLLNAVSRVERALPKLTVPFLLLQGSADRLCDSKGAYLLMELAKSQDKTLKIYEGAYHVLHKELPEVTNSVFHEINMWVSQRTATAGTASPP
In words: MAGL inactivation (kinact/KI from enzyme progress curves, T=0 min protocol). As to conditions: from plot of Kobs vs. compound concentration, geometric mean of 2-5 determinations (b: ≥6).

The target of experiment [2] is T1, human recombinant Monoacylglycerol Lipase. The experiment is described as follows: MAGL enzymatic assay (IC50; 7-HCA substrate added at T=0 min or T=30 min). In kind it is biochemical. Conditions: geometric mean of 2-5 determinations unless otherwise indicated.
Setting [3] is: MAGL (T = 30 min) IC50, substrate 7-HCA added after 30 minute incubation (T=30 min).
Setting [4] is: substrate 7-HCA added immediately (T=0 min), read-out: MAGL (T = 0 min) IC50.

Like-named read-outs stand apart in the source and are kept apart here.

As a reminder, the IC50 is the point on the concentration scale where inhibition reaches its midpoint.

For `O=C(O[C@H](CO)C(F)(F)F)N1CCC2(CC1)CC(c1ccc(F)cn1)CO2` (single isomer, unassigned) [Example 16], in experiment [1], the “MAGL kinact/KI” value is 5010^b 1/s per M. Further, the concentration for half-maximal inhibition (IC50) in experiment [2] (setting [3]) is 9 nM; in experiment [2] (setting [4]), 92 nM.

Consider `O=C(O[C@H](CO)C(F)(F)F)N1CCC2(CC1)CC(c1ccc(F)cn1)CO2` (single isomer, unassigned) [Example 17], for which the “MAGL kinact/KI” value in experiment [1] is reported as 1390^b 1/s per M. Also, the figures for the half-maximal inhibitory concentration (IC50) in experiment [2] (setting [3]) and in experiment [2] (setting [4]) were 26 nM and 297 nM, respectively.

Take `O=C(O[C@H](CO)C(F)(F)F)N1CCC2(CC1)CC(n1cc(C(F)F)cn1)CO2` (single isomer, unassigned) [Example 20]: the “MAGL kinact/KI” value in experiment [1] is recorded as 7170 1/s per M. Further, the results for the IC50 in experiment [2] (setting [3]) and in experiment [2] (setting [4]) were 11 nM and 107 nM, respectively.

Take `CC(C)(C)c1cnn(C2COC3(CCN(C(=O)O[C@H](CO)C(F)(F)F)CC3)C2)c1` (single isomer, unassigned) [Example 21]: the “MAGL kinact/KI” value in experiment [1] is on record as 24400 1/s per M. In addition, the values for the half-maximal inhibitory concentration (IC50) in experiment [2] (setting [3]) and in experiment [2] (setting [4]) were 2 nM and 9 nM, respectively.

Turning to `O=C(O[C@H](CO)C(F)(F)F)N1CCC2(CC1)CC(n1cc(Cl)cn1)CO2` (single isomer, unassigned) [Example 22], the “MAGL kinact/KI” value in experiment [1] is reported as 9780 1/s per M. For the same compound, the IC50 in experiment [2] (setting [3]) was determined as 4 nM; in experiment [2] (setting [4]), 49 nM.

For `Cc1cnn(C2COC3(CCN(C(=O)O[C@H](CO)C(F)(F)F)CC3)C2)c1` (single isomer, unassigned) [Example 24], the “MAGL kinact/KI” value in experiment [1] is recorded as 7840 1/s per M. Also, the concentration for half-maximal inhibition (IC50) came out at 12 nM in experiment [2] (setting [3]) and 115 nM in experiment [2] (setting [4]).

In the case of `O=C(O[C@H](CO)C(F)(F)F)N1CCC2(CC1)CC(c1ccccc1F)CO2` (single isomer, unassigned) [Example 25], in experiment [1], the “MAGL kinact/KI” value is 25500 1/s per M. The figures for the IC50 in experiment [2] (setting [3]) and in experiment [2] (setting [4]) were 2 nM and 20 nM, respectively.

As to `O=C(O[C@H](CO)C(F)(F)F)N1CCC2(CC1)CC(c1ccccc1F)CO2` (single isomer, unassigned) [Example 26], the “MAGL kinact/KI” value in experiment [1] is listed as 87700 1/s per M. The IC50 in experiment [2] (setting [3]) stood at 1 nM; in experiment [2] (setting [4]), 8 nM.

Turning to `N#Cc1cc(C2COC3(CCN(C(=O)O[C@H](CO)C(F)(F)F)CC3)C2)ccc1F` (single isomer, unassigned) [Example 28], the “MAGL kinact/KI” value in experiment [1] is listed as 16900 1/s per M. In addition, the IC50 in experiment [2] (setting [3]) came to 3 nM; in experiment [2] (setting [4]), 27 nM.

`N#Cc1ccc(F)c(C2COC3(CCN(C(=O)O[C@H](CO)C(F)(F)F)CC3)C2)c1` (single isomer, unassigned) [Example 29]: in experiment [1], the “MAGL kinact/KI” value is reported as 3250 1/s per M. In addition, the IC50 was determined as 17 nM in experiment [2] (setting [3]) and 184 nM in experiment [2] (setting [4]).

Regarding `N#Cc1ccc(F)c(C2COC3(CCN(C(=O)O[C@H](CO)C(F)(F)F)CC3)C2)c1` (single isomer, unassigned) [Example 30], in experiment [1], the “MAGL kinact/KI” value is given as 14400 1/s per M. Moreover, the 50% inhibitory concentration (IC50) stood at 4 nM in experiment [2] (setting [3]) and 54 nM in experiment [2] (setting [4]).

For `N#Cc1ccc(C2COC3(CCN(C(=O)O[C@H](CO)C(F)(F)F)CC3)C2)cc1` (single isomer, unassigned) [Example 31], the “MAGL kinact/KI” value in experiment [1] is on record as 8060 1/s per M. Besides, the IC50 turned out to be 4 nM in experiment [2] (setting [3]) and 33 nM in experiment [2] (setting [4]).

On to `O=C(O[C@H](CO)C(F)(F)F)N1CCC2(CC1)CC(c1c(F)cccc1F)CO2` (single isomer, unassigned) [Example 32], for which the “MAGL kinact/KI” value in experiment [1] is 233000 1/s per M. Moreover, the concentration for half-maximal inhibition (IC50) is 0.4 nM in experiment [2] (setting [3]) and 5 nM in experiment [2] (setting [4]).

With `O=C(O[C@H](CO)C(F)(F)F)N1CCC2(CC1)CC(c1ccc(F)cc1F)CO2` (single isomer, unassigned) [Example 33], the “MAGL kinact/KI” value in experiment [1] is 53400 1/s per M. In addition, the concentration for half-maximal inhibition (IC50) came to 1 nM in experiment [2] (setting [3]) and 10 nM in experiment [2] (setting [4]).

For the compound `O=C(O[C@H](CO)C(F)(F)F)N1CCC2(CC1)CC(c1ccc(F)cc1)CO2` (single isomer, unassigned) [Example 34], the “MAGL kinact/KI” value in experiment [1] was 7920 1/s per M. Further, the values for the concentration for half-maximal inhibition (IC50) in experiment [2] (setting [3]) and in experiment [2] (setting [4]) were 4 nM and 48 nM, respectively.
